From US20240270751A1, “Pyrazolopyridinone Compounds” (BeiGene Ltd., priority 2021, published 2024)

Tests used:
DGKζ = DGKζ (Homo sapiens (Human), UniProt Q13574); assay: Biochemical DGK IC50 assay, DGKζ ADP-Glo assay; settings: 0.5 nM enzyme, 140 μM ATP, 80 μM DAG; read-out: DGKζ ADP-Glo assay IC50
Protocol: (§1) Enzymatic reactions of DGKζ, DGKα and DGKδ were performed using ADP-Glo assay with lipid micelle substrate. […] Full length DGKα (D21-10BG, SignalChem) and full length DGKδ (D23-10G, SignalChem) were purchased. Lipid micelle was prepared by dissolving DAG (Sigma, 317505-10MG) and PS (Sigma, P7769-100MG) with chloroform which was furtherly removed by rotary evaporation. The resulted product was resuspended in buffer containing 25 mM HEPES pH 7.0, 0.5 mM EDTA and 160 mM Octyl β-D glucopyranoside by vigorous mixing and ultrasonic (IID, Scientz).
(§2) The ranges of compounds final concentration were 1.55˜10000 nM or 23.3˜150000 nM. 3 μL 2× enzyme solution was added to wells.
Human His-TEV-DGK-zeta-pFastBac1 and human baculovirus samples was generated using the Bac-to-Bac baculovirus expression system (Invitrogen) according to the manufacturer's protocol. The DNA used for expression of DGK-zeta, have SEQ ID Nos: 1. Baculovirus amplification was achieved using infected SF9 cells at 1:2000 virus/cells ratios, and grown for 96 hours at 27° C. post-transfected.
The expression scaled up for each protein was carried out in the […] from CORNING. 4 L of 3×10^6 cells/mL Sf9 cells (Expression System, Invitrogen) grown in SF900™ II SFM insect medium (Expression System) was infected with virus stock at 1:200 virus/cells ratio, and grown for 48 hours at 27° C. post-transfection. The infected cell culture was harvested by centrifugation at 6000 rpm for 15 min 4° C. in a SORVALL LYNX6000 centrifuge. The cell pellets were stored at −80° C.
Full length human DGKζ produced as described above, was purified from Sf9 baculovirus-infected insect cell paste. The cells were lysed using sonication method, and the lysates were clarified by centrifugation.

DGKα = DGKα (Homo sapiens (Human), UniProt P23743); assay: Biochemical DGK IC50 assay, DGKα ADP-Glo assay; settings: 7.5 nM enzyme, 140 μM ATP, 80 μM DAG
Protocol: as §1, §2

Chain of DGKζ (Q13574 other isoform, or with tags, fused parts or gaps): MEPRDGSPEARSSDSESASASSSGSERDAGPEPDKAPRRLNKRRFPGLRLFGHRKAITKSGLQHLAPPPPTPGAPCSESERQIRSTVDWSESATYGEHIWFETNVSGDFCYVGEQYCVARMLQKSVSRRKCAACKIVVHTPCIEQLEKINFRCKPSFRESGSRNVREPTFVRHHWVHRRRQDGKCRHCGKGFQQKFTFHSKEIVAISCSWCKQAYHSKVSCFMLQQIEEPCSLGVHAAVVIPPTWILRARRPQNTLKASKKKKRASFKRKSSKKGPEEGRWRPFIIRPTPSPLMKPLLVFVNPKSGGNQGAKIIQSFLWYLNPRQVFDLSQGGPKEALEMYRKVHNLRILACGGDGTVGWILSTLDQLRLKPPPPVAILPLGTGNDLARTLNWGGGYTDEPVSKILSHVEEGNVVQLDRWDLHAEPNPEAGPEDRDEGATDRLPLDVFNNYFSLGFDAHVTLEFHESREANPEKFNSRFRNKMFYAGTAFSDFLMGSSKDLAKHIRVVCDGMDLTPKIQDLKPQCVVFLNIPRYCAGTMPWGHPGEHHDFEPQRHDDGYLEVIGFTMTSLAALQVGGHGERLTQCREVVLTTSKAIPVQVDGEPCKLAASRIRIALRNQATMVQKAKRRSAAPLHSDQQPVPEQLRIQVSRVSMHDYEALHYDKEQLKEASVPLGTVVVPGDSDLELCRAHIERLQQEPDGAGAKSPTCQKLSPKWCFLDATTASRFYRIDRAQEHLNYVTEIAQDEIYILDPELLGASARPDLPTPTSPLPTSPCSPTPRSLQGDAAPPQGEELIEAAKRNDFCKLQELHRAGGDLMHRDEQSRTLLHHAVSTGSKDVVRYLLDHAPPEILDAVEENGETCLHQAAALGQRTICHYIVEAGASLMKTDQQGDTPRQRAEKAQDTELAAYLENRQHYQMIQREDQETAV
Chain of DGKα (P23743 whole entry): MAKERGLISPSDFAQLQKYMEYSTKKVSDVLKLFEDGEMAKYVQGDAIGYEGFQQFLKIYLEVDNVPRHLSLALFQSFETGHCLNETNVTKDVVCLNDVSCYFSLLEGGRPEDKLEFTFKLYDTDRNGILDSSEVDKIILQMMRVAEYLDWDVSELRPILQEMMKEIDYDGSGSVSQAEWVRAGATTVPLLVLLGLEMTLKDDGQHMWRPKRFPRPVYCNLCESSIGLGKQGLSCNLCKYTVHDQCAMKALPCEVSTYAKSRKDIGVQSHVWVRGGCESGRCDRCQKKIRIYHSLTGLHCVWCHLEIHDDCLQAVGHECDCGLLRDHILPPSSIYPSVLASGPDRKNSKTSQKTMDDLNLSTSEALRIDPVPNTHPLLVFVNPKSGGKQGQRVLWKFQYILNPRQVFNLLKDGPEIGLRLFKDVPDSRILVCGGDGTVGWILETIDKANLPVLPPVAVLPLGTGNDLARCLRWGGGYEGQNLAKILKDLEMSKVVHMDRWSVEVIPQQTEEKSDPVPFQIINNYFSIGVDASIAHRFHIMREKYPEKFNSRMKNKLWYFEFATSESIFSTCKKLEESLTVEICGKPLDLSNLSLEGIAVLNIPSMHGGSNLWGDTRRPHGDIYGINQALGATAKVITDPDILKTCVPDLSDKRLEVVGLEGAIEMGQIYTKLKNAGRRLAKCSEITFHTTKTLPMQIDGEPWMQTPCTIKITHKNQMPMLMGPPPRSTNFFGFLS

Row | Compound | IC50 (DGKζ) [nM] | IC50 (DGKα) [nM]
1 | CC#CCn1cc2c(n1)c(N1C[C@@H](CC)N(C(C)c3cnc4ccccc4n3)C[C@@H]1C)cc(=O)n2C (single isomer, unassigned) [Compound A394b] | 125 | 30
2 | CC(c1ccc2c(n1)OCCO2)N1C[C@H](C)N(c2cc(=O)n(C)c3cn(CC#N)nc23)C[C@H]1C (stereo partly drawn) [Compound A324, 2-(7-((2S,5R)-4-(1-(2,3-dihydro-[1,4]dioxino[2,3-b]pyridin-6-yl)ethyl)-2,5-dimethylpiperazin-1-yl)-4-methyl-5-oxo-4,5-dihydro-2H-pyrazolo[4,3-b]pyridin-2-yl)acetonitrile] | 4020 | > 150000
3 | CC[C@H]1CN(C(C)c2ccc(C)cn2)[C@H](CC)CN1c1cc(=O)n(C)c2cn(CC#N)nc12 (stereo partly shown) [Compound A346] | 556 | 29
4 | CC(c1ccc(F)cc1C(F)F)N1C[C@H](C)N(c2cc(=O)n(C)c3cn(CC#N)nc23)C[C@H]1C (stereo partly shown) [Compound A252] | 1370 | > 10000
5 | CC[C@H]1CN(C(C)c2ccc(OCC3COC3)cc2)[C@H](CC)CN1c1cc(=O)n(C)c2cn(CC#N)nc12 (stereo partly shown) [Compound A379] | 571 | 294
6 | COc1cc(F)c(C(C)N2C[C@H](C)N(c3cc(=O)n(C)c4cn(CC#N)nc34)C[C@H]2C)c(F)c1 (stereo partly shown) [Compound A32] | 230 | 1200
7 | CC(c1ccc2nccnc2c1)N1C[C@H](C)N(c2cc(=O)n(C)c3cn(CC#N)nc23)C[C@H]1C (mixture of isomers) [Compound A2, 2-(7-((2S,5R)-2,5-dimethyl-4-(1-(quinoxalin-6-yl)ethyl)piperazin-1-yl)-4-methyl-5-oxo-4,5-dihydro-2H-pyrazolo[4,3-b]pyridin-2-yl)acetonitrile] | 71 | 7700
8 | CC#CCn1cc2c(n1)c(N1C[C@@H](CC)N(C(C)c3cnc4ccccc4n3)C[C@@H]1C)cc(=O)n2C (single isomer, unassigned) [Compound A394a] | 5400 | 454
9 | CC[C@@H]1CN(c2cc(=O)n(C)c3cn(CC#N)nc23)[C@@H](C)CN1C(C)c1ccc2nccnc2c1 (mixture of isomers) [Compound A97, 2-(7-((2S,5R)-5-ethyl-2-methyl-4-(1-(quinoxalin-6-yl)ethyl)piperazin-1-yl)-4-methyl-5-oxo-4,5-dihydro-2H-pyrazolo[4,3-b]pyridin-2-yl)acetonitrile] | 1 | 999
10 | COc1cnc2ccc(C(C)N3C[C@H](C)N(c4cc(=O)n(C)c5cn(CC#N)nc45)C[C@H]3C)cc2n1 (stereo partly drawn) [Compound A270, 2-(7-((2S,5R)-4-(1-(3-methoxyquinoxalin-6-yl)ethyl)-2,5-dimethylpiperazin-1-yl)-4-methyl-5-oxo-4,5-dihydro-2H-pyrazolo[4,3-b]pyridin-2-yl)acetonitrile] | 169 | 40100
11 | CC[C@H]1CN(C(C)c2ccc(F)cc2OC(F)F)[C@H](CC)CN1c1cc(=O)n(C)c2cn(CC#N)nc12 (single isomer, unassigned) [Compound A171a] | 65 | 8340
12 | CC[C@H]1CN(C(C)c2ccccc2OC)[C@H](CC)CN1c1cc(=O)n(C)c2cn(CC#N)nc12 (single isomer, unassigned) [Compound A106a] | 2190 | > 10000
13 | CC(C1CCOCC1)N1C[C@H](C)N(c2cc(=O)n(C)c3cn(CC#N)nc23)C[C@H]1C (stereo partly shown) [Compound A242] | > 10000 | > 10000
14 | CC(c1ccc2c(c1)OCCO2)N1C[C@H](C)N(c2cc(=O)n(C)c3cn(CC#N)nc23)C[C@H]1C (single isomer, unassigned) [Compound A43a] | 5080 | 37700
15 | CC(c1ccc2nccnc2c1)N1C[C@H](C)N(c2cc(=O)n(C)c3cn(C4CC4)nc23)C[C@H]1C (stereo partly drawn) [Compound A17, 2-cyclopropyl-7-((2S,5R)-2,5-dimethyl-4-(1-(quinoxalin-6-yl)ethyl)piperazin-1-yl)-4-methyl-2,4-dihydro-5H-pyrazolo[4,3-b]pyridin-5-one] | 13000 | 9000
16 | CC[C@@H]1CN(c2cc(=O)n(C)c3cn(CC#N)nc23)[C@@H](CC)CN1Cc1ccc(F)cc1 [Compound A70] | 640 | 38

Row | Compound | IC50 (DGKζ) [nM] | IC50 (DGKα) [nM]
17 | CC[C@H]1CN(C(C)c2ccncc2OC)[C@H](CC)CN1c1cc(=O)n(C)c2cn(CC#N)nc12 (stereo partly shown) [Compound A91] | 533 | > 10000
18 | C[C@@H](c1ccc2nccnc2c1)N1CCN(c2cc(=O)n(C)c3cn(CC#N)nc23)CC1C(N)=O (single isomer, unassigned) [Compound A198a] | > 10000 | > 10000
19 | CC[C@H]1CN(C(C)c2cnn(CC)c2C(F)(F)F)[C@H](CC)CN1c1cc(=O)n(C)c2cn(CC#N)nc12 (single isomer, unassigned) [Compound A119a] | 15 | 8090
20 | CC[C@H]1CN(C(C)c2ccc(C(F)(F)F)c(OC)c2)[C@H](CC)CN1c1cc(=O)n(C)c2cn(CC#N)nc12 (stereo partly shown) [Compound A78] | 640 | 2410
21 | CC#CCn1cc2c(n1)c(N1C[C@@H](C)N([C@H](C)c3ccc4nccnc4c3)C[C@@H]1C)cc(=O)n2C [Compound A22a, 2-(but-2-yn-1-yl)-7-((2S,5R)-2,5-dimethyl-4-((R)-1-(quinoxalin-6-yl)ethyl)piperazin-1-yl)-4-methyl-2,4-dihydro-5H-pyrazolo[4,3-b]pyridin-5-one] | 13000 | 1100
22 | Cc1ccc(C(c2ccc(C)cc2)N2C[C@H](C)N(c3cc(=O)n(C)c4cn(CC#N)nc34)C[C@H]2C)cc1 [Compound A333] | 210 | 10600
23 | CC[C@H]1CN(C(C)c2cn3ccccc3n2)[C@H](CC)CN1c1cc(=O)n(C)c2cn(CC#N)nc12 (stereo partly shown) [Compound A388] | 1250 | 1390
24 | COCc1cc(C(C)N2C[C@H](C)N(c3cc(=O)n(C)c4cn(CC#N)nc34)C[C@H]2C)ccc1F (stereo partly shown) [Compound A30] | 110 | 5100
25 | CC[C@H]1CN(C(C)c2nc3ccccc3n2CC)[C@H](CC)CN1c1cc(=O)n(C)c2cn(CC#N)nc12 (stereo partly drawn) [Compound A144, 2-(7-((2S,5R)-2,5-diethyl-4-(1-(1-ethyl-1H-benzo[d]imidazol-2-yl)ethyl)piperazin-1-yl)-4-methyl-5-oxo-4,5-dihydro-2H-pyrazolo[4,3-b]pyridin-2-yl)acetonitrile] | 42 | 105000
26 | CC[C@H]1CN(C(C)c2ccc(F)c(F)c2C(F)(F)F)[C@H](CC)CN1c1cc(=O)n(C)c2cn(CC#N)nc12 (stereo partly shown) [Compound A288] | 263 | 3400
27 | CC[C@H]1CN(C(C)c2ccc(F)cc2OC(F)(F)F)[C@H](CC)CN1c1cc(=O)n(C)c2cn(CC#N)nc12 (stereo partly drawn) [Compound A170, 2-(7-((2S,5R)-2,5-diethyl-4-(1-(4-fluoro-2-(trifluoromethoxy)phenyl)ethyl)piperazin-1-yl)-4-methyl-5-oxo-4,5-dihydro-2H-pyrazolo[4,3-b]pyridin-2-yl)acetonitrile] | 887 | > 10000
28 | C[C@@H]1CN(c2cc(=O)n(C)c3cn(CC#N)nc23)[C@@H](C)CN1C(c1ccc2nccnc2c1)C(F)F (stereo partly drawn) [Compound A262, 2-(7-((2S,5R)-4-(2,2-difluoro-1-(quinoxalin-6-yl)ethyl)-2,5-dimethylpiperazin-1-yl)-4-methyl-5-oxo-4,5-dihydro-2H-pyrazolo[4,3-b]pyridin-2-yl)acetonitrile] | 150 | > 10000
29 | CC(c1ccc2cccnc2c1)N1C[C@H](C)N(c2cc(=O)n(C)c3cn(CC#N)nc23)C[C@H]1C (stereo partly shown) [Compound A40] | 270 | 2300
30 | CC[C@H]1CN(C(C)c2ccc(F)cc2C(F)F)[C@H](CC)CN1c1cc(=O)n(C)c2cn(CC#N)nc12 (single isomer, unassigned) [Compound A172b] | 14 | 20400
31 | CC(c1ccc2nccnc2c1)N1C[C@H](CO)N(c2cc(=O)n(C)c3cn(CC#N)nc23)C[C@H]1C (stereo partly drawn) [Compound A101, 2-(7-((2R,5R)-2-(hydroxymethyl)-5-methyl-4-(1-(quinoxalin-6-yl)ethyl)piperazin-1-yl)-4-methyl-5-oxo-4,5-dihydro-2H-pyrazolo[4,3-b]pyridin-2-yl)acetonitrile] | 707 | > 10000
32 | CC(c1ccc2nc(O)cnc2c1)N1C[C@H](C)N(c2cc(=O)n(C)c3cn(CC#N)nc23)C[C@H]1C (stereo partly drawn) [Compound A284, 2-(7-((2S,5R)-4-(1-(2-hydroxyquinoxalin-6-yl)ethyl)-2,5-dimethylpiperazin-1-yl)-4-methyl-5-oxo-4,5-dihydro-2H-pyrazolo[4,3-b]pyridin-2-yl)acetonitrile] | > 10000 | 6480
